Experiments:
Assay in all cases: Kinase profiling
Assay type in all cases: biochemical
NEK9 = molecular target: T1, NEK9 (Homo sapiens, UniProt Q8TD19)
T1 construct: purchased ProQinase (Freiburg, Germany)
T1 sequence (Q8TD19 1-979): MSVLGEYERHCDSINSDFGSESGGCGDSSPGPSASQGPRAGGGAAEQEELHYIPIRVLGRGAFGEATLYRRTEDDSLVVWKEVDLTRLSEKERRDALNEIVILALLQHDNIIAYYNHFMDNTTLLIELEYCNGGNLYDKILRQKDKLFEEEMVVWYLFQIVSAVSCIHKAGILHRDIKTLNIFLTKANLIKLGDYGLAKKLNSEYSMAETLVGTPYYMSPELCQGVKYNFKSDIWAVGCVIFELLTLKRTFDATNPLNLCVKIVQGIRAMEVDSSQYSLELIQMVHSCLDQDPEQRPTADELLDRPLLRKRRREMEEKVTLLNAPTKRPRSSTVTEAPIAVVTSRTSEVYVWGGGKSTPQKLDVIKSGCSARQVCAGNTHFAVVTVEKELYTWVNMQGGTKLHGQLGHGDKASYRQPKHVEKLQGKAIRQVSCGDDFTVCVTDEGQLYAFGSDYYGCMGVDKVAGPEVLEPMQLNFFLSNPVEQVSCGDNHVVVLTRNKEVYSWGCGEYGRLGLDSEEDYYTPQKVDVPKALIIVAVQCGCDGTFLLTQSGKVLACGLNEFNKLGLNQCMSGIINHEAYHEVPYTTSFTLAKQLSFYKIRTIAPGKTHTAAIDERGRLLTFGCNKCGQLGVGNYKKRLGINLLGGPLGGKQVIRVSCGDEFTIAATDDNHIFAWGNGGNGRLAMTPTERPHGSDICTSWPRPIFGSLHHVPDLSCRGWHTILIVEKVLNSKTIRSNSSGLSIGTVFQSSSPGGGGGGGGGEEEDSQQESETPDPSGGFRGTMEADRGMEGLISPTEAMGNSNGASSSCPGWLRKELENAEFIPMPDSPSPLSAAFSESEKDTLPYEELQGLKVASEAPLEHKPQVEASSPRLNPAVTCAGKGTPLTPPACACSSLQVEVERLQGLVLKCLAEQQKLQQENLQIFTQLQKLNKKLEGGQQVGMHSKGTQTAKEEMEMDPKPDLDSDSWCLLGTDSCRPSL
Procedure: (§1) The analysis was performed by ProQinase (Freiburg, Germany).

EPHA6 = molecular target: T2, EPHA6 (Homo sapiens, UniProt Q9UF33)
T2 construct: purchased ProQinase (Freiburg, Germany)
T2 sequence (Q9UF33 23-1036): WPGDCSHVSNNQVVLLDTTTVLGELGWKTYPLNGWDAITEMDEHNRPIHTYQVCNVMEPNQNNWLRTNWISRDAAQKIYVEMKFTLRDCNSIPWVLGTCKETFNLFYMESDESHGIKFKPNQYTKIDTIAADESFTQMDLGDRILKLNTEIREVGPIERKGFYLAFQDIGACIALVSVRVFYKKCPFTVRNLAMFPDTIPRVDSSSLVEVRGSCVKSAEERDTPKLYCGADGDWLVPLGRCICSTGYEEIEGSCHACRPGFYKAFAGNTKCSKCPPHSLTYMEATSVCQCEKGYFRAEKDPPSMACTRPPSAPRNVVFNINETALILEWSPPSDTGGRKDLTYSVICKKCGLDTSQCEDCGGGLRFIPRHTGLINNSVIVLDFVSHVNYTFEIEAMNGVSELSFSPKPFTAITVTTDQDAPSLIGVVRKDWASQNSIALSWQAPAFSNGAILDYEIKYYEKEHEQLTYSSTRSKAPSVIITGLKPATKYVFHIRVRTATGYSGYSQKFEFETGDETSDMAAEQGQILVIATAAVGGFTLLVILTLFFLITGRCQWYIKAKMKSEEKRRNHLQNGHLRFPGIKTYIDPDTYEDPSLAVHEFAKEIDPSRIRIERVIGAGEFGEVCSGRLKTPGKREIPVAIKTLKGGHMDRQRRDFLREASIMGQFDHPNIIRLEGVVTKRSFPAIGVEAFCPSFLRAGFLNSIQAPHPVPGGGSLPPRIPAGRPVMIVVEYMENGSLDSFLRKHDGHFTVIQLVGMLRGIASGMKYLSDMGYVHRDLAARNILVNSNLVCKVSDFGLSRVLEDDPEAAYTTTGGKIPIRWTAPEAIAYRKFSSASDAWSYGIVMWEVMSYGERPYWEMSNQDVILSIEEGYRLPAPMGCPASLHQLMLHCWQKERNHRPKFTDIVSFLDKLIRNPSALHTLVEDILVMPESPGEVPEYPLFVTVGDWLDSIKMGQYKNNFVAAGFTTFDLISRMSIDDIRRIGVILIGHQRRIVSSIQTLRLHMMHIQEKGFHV
Procedure: as §1

GRK4 = molecular target: T3, GRK4 (Homo sapiens, UniProt P32298)
T3 construct: purchased ProQinase (Freiburg, Germany)
T3 sequence (P32298 whole entry): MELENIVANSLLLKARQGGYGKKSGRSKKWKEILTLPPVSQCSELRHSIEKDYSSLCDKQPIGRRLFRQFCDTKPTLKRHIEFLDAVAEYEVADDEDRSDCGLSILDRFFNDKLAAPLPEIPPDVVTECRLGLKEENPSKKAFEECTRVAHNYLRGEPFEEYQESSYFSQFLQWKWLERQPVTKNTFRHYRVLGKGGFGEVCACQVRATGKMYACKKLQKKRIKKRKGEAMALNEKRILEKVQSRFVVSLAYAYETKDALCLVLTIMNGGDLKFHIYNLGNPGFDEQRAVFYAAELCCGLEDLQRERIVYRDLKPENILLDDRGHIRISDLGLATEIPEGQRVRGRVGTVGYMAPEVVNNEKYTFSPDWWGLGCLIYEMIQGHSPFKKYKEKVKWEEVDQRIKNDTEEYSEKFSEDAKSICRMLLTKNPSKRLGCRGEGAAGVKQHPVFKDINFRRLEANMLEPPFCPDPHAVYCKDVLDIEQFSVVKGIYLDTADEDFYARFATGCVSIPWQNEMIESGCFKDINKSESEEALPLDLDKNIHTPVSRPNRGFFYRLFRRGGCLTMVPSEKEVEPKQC
Procedure: as §1

CDK4/CycD3 = molecular target: T4, CDK4/CycD3 (Homo sapiens, UniProt P11802)
T4 construct: purchased ProQinase (Freiburg, Germany)
T4 sequence (P11802 whole entry): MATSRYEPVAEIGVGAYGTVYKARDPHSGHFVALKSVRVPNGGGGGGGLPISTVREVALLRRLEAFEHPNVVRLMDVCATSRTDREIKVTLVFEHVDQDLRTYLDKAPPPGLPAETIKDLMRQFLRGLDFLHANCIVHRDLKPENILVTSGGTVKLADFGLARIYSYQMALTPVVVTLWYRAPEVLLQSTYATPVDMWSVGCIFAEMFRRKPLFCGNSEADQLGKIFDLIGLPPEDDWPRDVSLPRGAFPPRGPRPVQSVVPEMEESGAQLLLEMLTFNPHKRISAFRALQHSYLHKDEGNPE
T4 sequence (P30281 whole entry partner): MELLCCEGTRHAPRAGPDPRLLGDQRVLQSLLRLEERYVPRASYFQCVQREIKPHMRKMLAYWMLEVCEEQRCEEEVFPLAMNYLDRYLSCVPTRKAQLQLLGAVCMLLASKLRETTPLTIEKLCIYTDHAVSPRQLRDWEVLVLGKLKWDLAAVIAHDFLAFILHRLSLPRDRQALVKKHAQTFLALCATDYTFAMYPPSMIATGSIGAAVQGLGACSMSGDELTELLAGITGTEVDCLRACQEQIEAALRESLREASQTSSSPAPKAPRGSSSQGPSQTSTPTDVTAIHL
Procedure: as §1

ARK5 = molecular target: T5, ARK5 (Homo sapiens, UniProt O60285)
T5 construct: purchased ProQinase (Freiburg, Germany)
T5 sequence (O60285 1-661): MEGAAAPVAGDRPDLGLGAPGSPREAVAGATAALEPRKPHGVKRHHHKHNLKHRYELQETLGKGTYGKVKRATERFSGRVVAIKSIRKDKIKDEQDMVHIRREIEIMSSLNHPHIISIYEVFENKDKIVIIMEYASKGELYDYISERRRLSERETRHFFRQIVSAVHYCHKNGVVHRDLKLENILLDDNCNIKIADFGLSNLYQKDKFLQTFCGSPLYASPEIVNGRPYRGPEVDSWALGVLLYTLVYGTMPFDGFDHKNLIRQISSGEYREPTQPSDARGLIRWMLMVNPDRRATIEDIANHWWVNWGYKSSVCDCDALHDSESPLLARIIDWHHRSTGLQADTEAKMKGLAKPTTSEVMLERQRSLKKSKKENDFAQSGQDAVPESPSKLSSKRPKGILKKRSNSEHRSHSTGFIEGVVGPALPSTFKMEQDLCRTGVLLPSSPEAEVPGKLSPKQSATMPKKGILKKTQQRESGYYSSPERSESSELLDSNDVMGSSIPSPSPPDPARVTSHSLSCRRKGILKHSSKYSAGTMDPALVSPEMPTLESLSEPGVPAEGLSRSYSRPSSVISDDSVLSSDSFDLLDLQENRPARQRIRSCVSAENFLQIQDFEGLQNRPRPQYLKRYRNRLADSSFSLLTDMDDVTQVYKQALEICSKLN
Procedure: as §1

| Compound | Residual activity (NEK9; 1.0E-05 M) | Residual activity (NEK9; 1.0E-06 M) | Residual activity (EPHA6; 1.0E-05 M) | Residual activity (EPHA6; 1.0E-06 M) | Residual activity (GRK4; 1.0E-05 M) | Residual activity (GRK4; 1.0E-06 M) | Residual activity (CDK4/CycD3; 1.0E-05 M) | Residual activity (CDK4/CycD3; 1.0E-06 M) | Residual activity (ARK5; 1.0E-05 M) | Residual activity (ARK5; 1.0E-06 M) |
| --- | --- | --- | --- | --- | --- | --- | --- | --- | --- | --- |
| O=C(Nc1ccc(F)c(Nc2ccc3c(c2)CCCCC3=O)c1)c1cccc(F)c1 [Compound 109] | 81 % of control | 96 % of control | 94 % of control | 100 % of control | 130 % of control | 103 % of control | 89 % of control | 94 % of control | 88 % of control | 92 % of control |
| O=C(Cc1ccccc1)Nc1ccc(F)c(Nc2ccc3c(c2)CCCCC3=O)c1 [Compound 100] | 93 % of control | 86 % of control | 80 % of control | 110 % of control | 86 % of control | 116 % of control | 89 % of control | 93 % of control | 91 % of control | 90 % of control |

Reference: PMC9030254, “Target Hopping from Protein Kinases to PXR: Identification of Small-Molecule Protein Kinase Inhibitors as Selective Modulators of Pregnane X Receptor from TüKIC Library” (Cells, 2022)
